Test results taken from US20220119354A1, “DIAMINO-SUBSTITUTED PYRIDINES AND PYRIMIDINES AS HERBICIDES” (FMC Corporation, priority 2019, published 2022).

Tests used:
Format in all cases: in vivo
[1] = system: barnyardgrass (Echinochloa crus-galli); assay: Test A preemergence, barnyardgrass; conditions: 0 to 100 scale
Outline: (§1)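 Steps: plant seeds in loam/sand; spray soil (pre) or seedlings at 1–2 leaves, 2–10 cm (post) with compound in solvent plus surfactant; keep in greenhouse ~10 d; score injury visually against untreated controls, 0–100.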

kochia (Kochia scoparia) [2] = assay: Test A preemergence, kochia; conditions: 0 to 100 scale
Outline: as §1

[3] = system: ragweed (common ragweed, Ambrosia elatior); assay: Test A preemergence, ragweed; conditions: 0 to 100 scale
Outline: as §1

[4] = system: ryegrass, Italian (Lolium multiflorum); assay: Test A preemergence, Italian ryegrass; conditions: 0 to 100 scale
Outline: as §1

[5] = system: foxtail, giant (Setaria faberii); assay: Test A preemergence, giant foxtail; conditions: 0 to 100 scale
Outline: as §1

[6] = system: pigweed (Amaranthus retroflexus); assay: Test A preemergence, pigweed; conditions: 0 to 100 scale
Outline: as §1

[7] = system: barnyardgrass (Echinochloa crus-galli); assay: Test A postemergence, barnyardgrass; conditions: 0 to 100 scale
Outline: as §1

kochia (Kochia scoparia) [8] = assay: Test A postemergence, kochia; conditions: 0 to 100 scale
Outline: as §1

[9] = system: ragweed (common ragweed, Ambrosia elatior); assay: Test A postemergence, ragweed; conditions: 0 to 100 scale
Outline: as §1

[10] = system: ryegrass, Italian (Lolium multiflorum); assay: Test A postemergence, Italian ryegrass; conditions: 0 to 100 scale
Outline: as §1

[11] = system: foxtail, giant (Setaria faberii); assay: Test A postemergence, giant foxtail; conditions: 0 to 100 scale
Outline: as §1

[12] = system: pigweed (Amaranthus retroflexus); assay: Test A postemergence, pigweed; conditions: 0 to 100 scale
Outline: as §1

[13] = system: wheat (Triticum aestivum); assay: Test A postemergence, wheat; conditions: 0 to 100 scale
Outline: as §1

corn (Zea mays) = assay: Test A postemergence, corn; conditions: 0 to 100 scale
Outline: as §1

[14] = system: blackgrass (Alopecurus myosuroides); assay: Test A postemergence, blackgrass; conditions: 0 to 100 scale
Outline: as §1

[15] = system: galium (catchweed bedstraw, Galium aparine); assay: Test A postemergence, galium; conditions: 0 to 100 scale
Outline: as §1

rice (Oryza sativa) = assay: Test B flooded paddy test, rice; conditions: Flood, 250 g ai/ha, applied to paddy water, 2-leaf stage, visual evaluation after 13 to 15 d
Outline: (§2)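 Application was made into paddy water of pots flooded 3 cm deep at treatment, with seedlings at the 2-leaf stage. That flood level was kept throughout, and plants stayed under glass 13 to 15 d before visual assessment on a 0–100 control scale.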

[16] = system: sedge, umbrella (small-flower umbrella sedge, Cyperus difformis); assay: Test B flooded paddy test, umbrella sedge; conditions: Flood, 250 g ai/ha, applied to paddy water, 2-leaf stage, visual evaluation after 13 to 15 d
Outline: as §2

[17] = system: ducksalad (Heteranthera limosa); assay: Test B flooded paddy test, ducksalad; conditions: Flood, 250 g ai/ha, applied to paddy water, 2-leaf stage, visual evaluation after 13 to 15 d
Outline: as §2

[18] = system: barnyardgrass (Echinochloa crus-galli); assay: Test B flooded paddy test, barnyardgrass; conditions: Flood, 250 g ai/ha, applied to paddy water, 2-leaf stage, visual evaluation after 13 to 15 d
Outline: as §2

Row | SMILES | Plant response rating, Barnyardgrass ([1]; 125 g ai/ha) | Plant response rating, Barnyardgrass ([1]; 500 g ai/ha) | Plant response rating, Kochia (kochia (Kochia scoparia) [2]; 125 g ai/ha) | Plant response rating, Kochia (kochia (Kochia scoparia) [2]; 500 g ai/ha) | Plant response rating, Ragweed ([3]; 125 g ai/ha) | Plant response rating, Ragweed ([3]; 500 g ai/ha) | Plant response rating, Ryegrass, Italian ([4]; 125 g ai/ha) | Plant response rating, Ryegrass, Italian ([4]; 500 g ai/ha) | Plant response rating, Foxtail, Giant ([5]; 125 g ai/ha) | Plant response rating, Foxtail, Giant ([5]; 500 g ai/ha) | Plant response rating, Pigweed ([6]; 125 g ai/ha) | Plant response rating, Pigweed ([6]; 500 g ai/ha) | Plant response rating, Barnyardgrass ([7]; 125 g ai/ha) | Plant response rating, Barnyardgrass ([7]; 500 g ai/ha) | Plant response rating, Kochia (kochia (Kochia scoparia) [8]; 125 g ai/ha) | Plant response rating, Kochia (kochia (Kochia scoparia) [8]; 500 g ai/ha) | Plant response rating, Ragweed ([9]; 125 g ai/ha) | Plant response rating, Ragweed ([9]; 500 g ai/ha) | Plant response rating, Ryegrass, Italian ([10]; 125 g ai/ha) | Plant response rating, Ryegrass, Italian ([10]; 500 g ai/ha) | other results
1 | C[C@@H](Nc1ncc(C(F)(F)F)c(N)n1)c1cc2cc(Cl)ccc2o1 [Compound 2] | 0 | 0 | 0 | 0 | 0 | 0 | 0 | 0 | 0 | 0 | 10 | 20 | 0 | 10 | 0 | 0 | 0 | 20 | 0 | 0 | Plant response rating, Foxtail, Giant ([11]; 125 g ai/ha): 0; Plant response rating, Foxtail, Giant ([11]; 500 g ai/ha): 0; Plant response rating, Pigweed ([12]; 125 g ai/ha): 40; Plant response rating, Pigweed ([12]; 500 g ai/ha): 90; Plant response rating, Wheat ([13]; 125 g ai/ha): 0; Plant response rating, Wheat ([13]; 500 g ai/ha): 0; Plant response rating, Corn (corn (Zea mays); 125 g ai/ha): 0; Plant response rating, Corn (corn (Zea mays); 500 g ai/ha): 0; Plant response rating, Blackgrass ([14]; 125 g ai/ha): 0; Plant response rating, Blackgrass ([14]; 500 g ai/ha): 0; Plant response rating, Galium ([15]; 125 g ai/ha): 0; Plant response rating, Galium ([15]; 500 g ai/ha): 30; Plant response rating, Rice (0 to 100 scale, 0 is no effect, 100 is complete control) (rice (Oryza sativa)): 0; Plant response rating, Sedge, Umbrella (0 to 100 scale, 0 is no effect, 100 is complete control) [16]: 0; Plant response rating, Ducksalad (0 to 100 scale, 0 is no effect, 100 is complete control) [17]: 0; Plant response rating, Barnyardgrass (0 to 100 scale, 0 is no effect, 100 is complete control) [18]: 0
2 | Cc1cc2cc([C@@H](C)Nc3ncc(C(F)(F)F)c(N)n3)oc2cc1C [Compound 11] | 20 | 70 | 0 | 10 | 0 | 90 | 20 | 30 | 40 | 80 | 20 | 100 | 20 | 30 | 30 | 70 | 40 | 80 | 0 | 0 | Plant response rating, Foxtail, Giant ([11]; 125 g ai/ha): 0; Plant response rating, Foxtail, Giant ([11]; 500 g ai/ha): 50; Plant response rating, Pigweed ([12]; 125 g ai/ha): 80; Plant response rating, Pigweed ([12]; 500 g ai/ha): 80; Plant response rating, Wheat ([13]; 125 g ai/ha): 0; Plant response rating, Wheat ([13]; 500 g ai/ha): 0; Plant response rating, Corn (corn (Zea mays); 125 g ai/ha): 40; Plant response rating, Corn (corn (Zea mays); 500 g ai/ha): 0; Plant response rating, Blackgrass ([14]; 125 g ai/ha): 0; Plant response rating, Blackgrass ([14]; 500 g ai/ha): 20; Plant response rating, Galium ([15]; 125 g ai/ha): 50; Plant response rating, Galium ([15]; 500 g ai/ha): 70; Plant response rating, Rice (0 to 100 scale, 0 is no effect, 100 is complete control) (rice (Oryza sativa)): 0; Plant response rating, Sedge, Umbrella (0 to 100 scale, 0 is no effect, 100 is complete control) [16]: 0; Plant response rating, Ducksalad (0 to 100 scale, 0 is no effect, 100 is complete control) [17]: 0; Plant response rating, Barnyardgrass (0 to 100 scale, 0 is no effect, 100 is complete control) [18]: 0
